From patent publication US11479571B2 (priority 2016, dated 2022) come the findings set out here.

The test system of series [1] is Vesicular stomatitis virus (VSV) particles encoding luciferase and pseudotyped with EboV GP. Kind of series: microbe, parasite or virus in culture. The class given is cell-based, Ebola virus. The conditions noted are these: for inhibition at 10 µM: compound concentration 10 μM; for inhibition at 2 µM: compound concentration 2 μM.

In turn, `O=C(OCc1ccccc1)N1CCN(C(=O)c2ccc3nc(-c4ccccn4)[nH]c3c2)CC1` came in with a melting point of 165 °C.
Same read-out and setting: the same measure for `FC(F)(F)c1ccc(CN2CCN(Cc3ccc4nc(-c5ccccc5)[nH]c4c3)CC2)cc1`: 178 °C; for `FC(F)(F)c1ccc(CN2CCN(Cc3ccc4nc(-c5cccnc5)[nH]c4c3)CC2)cc1`: 138 °C.
With `O=C(c1ccc2nc(-c3ccccc3)[nH]c2c1)N1CCN(Cc2ccc(C(F)(F)F)cc2)CC1`, the melting point amounted to 220 °C.
On the same count and under the same terms, in the case of `O=C(c1ccc2nc(C(c3ccccc3)c3ccccc3)[nH]c2c1)N1CCN(Cc2ccc(C(F)(F)F)cc2)CC1` it was 148 °C; in that of `FC(F)(F)Oc1cccc(CN2CCN(Cc3ccc4nc(C(c5ccccc5)c5ccccc5)[nH]c4c3)CC2)c1`, 86 °C.
The compound `FC(F)(F)Oc1cccc(CN2CCN(Cc3ccc4nc(-c5cccnc5)[nH]c4c3)CC2)c1` registered a melting point of 110 °C.
`FC(F)(F)Oc1cccc(CN2CCN(Cc3ccc4nc(-c5ccccn5)[nH]c4c3)CC2)c1` registered a melting point of 65 °C.
`O=C(c1ccc2nc(C(c3ccccc3)c3ccccc3)[nH]c2c1)N1CCN(Cc2cccc(OC(F)(F)F)c2)CC1` had a melting point of 76 °C.
The same measure, in the same setting: the same measure for `O=C(c1ccc2nc(-c3ccccn3)[nH]c2c1)N1CCN(Cc2cccc(OC(F)(F)F)c2)CC1`: 100 °C.
For `FC(F)(F)Oc1ccc(CN2CCN(Cc3ccc4nc(-c5cccnc5)[nH]c4c3)CC2)cc1`, the melting point is 88 °C.
`FC(F)(F)Oc1ccc(CN2CCN(Cc3ccc4nc(-c5ccccn5)[nH]c4c3)CC2)cc1` gave a melting point of 64 °C.
`O=C(c1ccc2nc(C(c3ccccc3)c3ccccc3)[nH]c2c1)N1CCN(Cc2ccc(OC(F)(F)F)cc2)CC1` returned a melting point of 120 °C.
Still for that read-out and setting: the same measure for `O=C(c1ccc2nc(-c3ccccn3)[nH]c2c1)N1CCN(Cc2ccc(OC(F)(F)F)cc2)CC1`: 190 °C; for `Cc1ccc(NC(=O)N2CCN(Cc3ccc4nc(-c5cccnc5)[nH]c4c3)CC2)cc1`: 174 °C; for `O=C(Nc1ccc(C(F)(F)F)cc1)N1CCN(Cc2ccc3nc(C(c4ccccc4)c4ccccc4)[nH]c3c2)CC1`: 172 °C.
On the same count and under the same terms, in the case of `O=C(COc1ccc(Cl)cc1)N1CCN(Cc2ccc3nc(C(c4ccccc4)c4ccccc4)[nH]c3c2)CC1` it was 194 °C.
On the same count and under the same terms, in the case of `O=C(COc1ccc(Cl)cc1)N1CCN(Cc2ccc3nc(-c4ccccn4)[nH]c3c2)CC1` it was 138 °C.
Turning to `COC(=O)c1ccc(COc2ccccc2CN2CCN(Cc3ccc4nc(-c5ccccc5)[nH]c4c3)CC2)cc1` [Compound E11, N1-[[2-[(4-methoxycarbonylphenyl)methoxy]phenyl]methyl]-N4-[(2-phenyl-benzimidazol-5-yl)methyl]-piperazine], the inhibition at 10 µM in series [1] was found to be 95%.
Consider `COC(=O)c1ccc(COc2ccccc2CN2CCN(Cc3ccc4nc(-c5ccccn5)[nH]c4c3)CC2)cc1` [Compound E14, N1-[[2-[(4-methoxycarbonylphenyl)methoxy]phenyl]methyl]-N4-[[2-(2-pyridyl)-benzimidazol-5-yl]methyl]-piperazine], for which the inhibition at 10 µM in series [1] is 80%.
In series [1], `COC(=O)c1ccc(COc2ccccc2CN2CCN(Cc3ccc4nc(-c5ccc(C(F)(F)F)cc5)[nH]c4c3)CC2)cc1` [Compound E15, N1-[[2-[4-(trifluoromethyl)phenyl]-benzimidazol-5-yl]methyl]-N4-[[2-[(4-methoxycarbonylphenyl)methoxy]phenyl]methyl]-piperazine] gave an inhibition at 2 µM of 2% and an inhibition at 10 µM of 93.5%.
In turn, `COC(=O)c1ccc(COc2ccccc2CN2CCN(Cc3ccc4nc(-c5cccc(C(F)(F)F)c5)[nH]c4c3)CC2)cc1` [Compound E16, N1-[[2-[3-(trifluoromethyl)phenyl]-benzimidazol-5-yl]methyl]-N4-[[2-[(4-methoxycarbonylphenyl)methoxy]phenyl]methyl]-piperazine] returned a melting point of 102 °C. For the same compound, in series [1], 2 µM produced 64.1% inhibition and the inhibition at 10 µM was 91.6%.
In the case of `COC(=O)c1ccc(COc2ccccc2CN2CCN(C(=O)c3ccc4nc(-c5ccccc5)[nH]c4c3)CC2)cc1` [Compound E17, N1-[[2-[(4-methoxycarbonylphenyl)methoxy]phenyl]methyl]-N4-(2-phenyl-benzimidazole-5-carbonyl)-piperazine], the melting point is 255 °C. For the same compound, the inhibition at 10 µM in series [1] was less than 20%.
Taken in the same sequence, the figures for `COC(=O)c1ccc(COc2ccccc2CN2CCN(C(=O)c3ccc4nc(C(c5ccccc5)c5ccccc5)[nH]c4c3)CC2)cc1` [Compound E18, N1-(2-benzhydryl-benzimidazole-5-carbonyl)-N4-[[2-[(4-methoxycarbonylphenyl)methoxy]phenyl]methyl]-piperazine] were 196 °C and less than 20%.
`COC(=O)c1ccc(COc2ccccc2CN2CCN(C(=O)c3ccc4nc(-c5cccnc5)[nH]c4c3)CC2)cc1` [Compound E19, N1-[[2-[(4-methoxycarbonylphenyl)methoxy]phenyl]methyl]-N4-[2-(3-pyridyl)-benzimidazole-5-carbonyl]-piperazine] returned an inhibition at 10 µM in series [1] of less than 20%.
As to `COC(=O)c1ccc(COc2ccccc2CN2CCN(C(=O)c3ccc4nc(-c5ccccn5)[nH]c4c3)CC2)cc1` [Compound E20, N1-[[2-[(4-methoxycarbonylphenyl)methoxy]phenyl]methyl]-N4-[2-(2-pyridyl)-benzimidazole-5-carbonyl]-piperazine], the melting point was 96 °C. In series [1], this compound gave an inhibition at 10 µM of less than 20%.
On to `FC(F)(F)c1ccc(CN2CCN(Cc3ccc4nc(C(c5ccccc5)c5ccccc5)[nH]c4c3)CC2)cc1` [Compound E22, N1-[(2-benzhydryl-benzimidazol-5-yl)methyl]-N4-[4-(trifluoromethyl)benzyl]-piperazine], for which the melting point came out at 236 °C. In series [1], this compound showed an inhibition at 2 µM of less than 20% and an inhibition at 10 µM of 80%.
In turn, `FC(F)(F)Oc1cccc(CN2CCN(Cc3ccc4nc(-c5ccccc5)[nH]c4c3)CC2)c1` [Compound E29, N1-[3-(trifluoromethoxy)benzyl]-N4-[(2-phenyl-benzimidazol-5-yl)methyl]-piperazine] registered a melting point of 80 °C. In series [1], this compound registered an inhibition at 2 µM of less than 20% and an inhibition at 10 µM of 80%.
In series [1], `O=C(Nc1ccc(C(F)(F)F)cc1)N1CCN(Cc2ccc3nc(-c4ccccn4)[nH]c3c2)CC1` [Compound E52, N1-[[2-(2-pyridyl)-benzimidazol-5-yl]methyl]-N4-[[4-(trifluoromethyl)phenyl]carbamoyl]-piperazine] had an inhibition at 2 µM of 64.3% and an inhibition at 10 µM of 82.9%.
For the compound `CCOP(=O)(Cc1ccc(COc2ccccc2CN2CCN(Cc3ccc4nc(-c5cccc(C(F)(F)F)c5)[nH]c4c3)CC2)cc1)OCC` [Compound E57], the inhibition at 10 µM in series [1] is less than 20%.
In series [1], `CCOP(=O)(Cc1cccc(COc2ccccc2CN2CCN(Cc3ccc4nc(-c5cccc(C(F)(F)F)c5)[nH]c4c3)CC2)c1)OCC` [Compound E59] showed an inhibition at 10 µM of less than 20%.

For orientation: melting point means the temperature, or range, at which the solid turns liquid. As a reminder, the inhibition is the drop in the measured response relative to a control, in per cent.
